By IC90 is commonly meant the concentration at which the effect reaches the 90% level. A lower IC90 goes with greater potency. A word on the IC50: it is the point on the concentration scale where inhibition reaches its midpoint. A lower IC50 goes with higher potency.

Among the data in ChEMBL document CHEMBL1157335, “Aromatic constituents of Uvaria grandiflora” (J Nat Prod, 2006) are IC90 and IC50 values, retold here.

The subject of the assay is Leishmania donovani. As to the kind of experiment: Antileishmanial activity against Leishmania donovani promastigotes after 48 hrs by alamar blue assay. The assay is classed as functional, organism-based. For orientation: Resazurin is reduced to fluorescent resorufin, in cell work by metabolically active cells.

Values after ≈ are worked out from the molar mass of the structure shown.

In the case of `C[C@@H]1[C@H](O)[C@@H](C)/C=C/C=C/C=C/C=C/C=C/C=C/C=C/[C@H](O[C@@H]2O[C@H](C)[C@@H](O)[C@H](N)[C@@H]2O)C[C@@H]2O[C@](O)(C[C@@H](O)C[C@@H](O)[C@H](O)CC[C@@H](O)C[C@@H](O)CC(=O)O[C@H]1C)C[C@H](O)[C@H]2C(=O)O` [AMPHOTERICIN B], the IC90 was 0.34 µg/mL (≈ 0.368 µM). Compound `CC(=O)O[C@H]1C(=O)C=COC=C1COC(=O)c1ccccc1` [GRANDIUVARONE A] came in with a half-maximal inhibitory concentration (IC50) of 0.7 µg/mL (≈ 2.32 µM) and an IC90 of 1.5 µg/mL (≈ 4.96 µM).

The compound `N=C(N)c1ccc(OCCCCCOc2ccc(C(=N)N)cc2)cc1` [PENTAMIDINE] yielded a concentration for an effect of 90% (IC90) of 6.6 µg/mL (≈ 19.4 µM).
